According to the supplement of paper PMC10307832:

What was measured:
Assay in all cases: relative viability (nuclei count vs DMSO), 5 days (fraction); higher = more cells survive
CPI-613 = compound: O=C(O)CCCCC(CCSCc1ccccc1)SCc1ccccc1 [CPI-613]
Procedure, shortened: (§1)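 Lung cancer cell lines were seeded into 1536-well plates, kept overnight at 37 °C and pinned with five library-drug doses (not always all listed) spaced by √10. After 5 days, nuclei were Hoechst-stained, imaged at 4× and counted with MetaXpress. Viability is treated-well nuclei over vehicle-well nuclei, taken as a median across plates. Plates needed control CV below 25% and at least one doubling.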

Pimozide = compound: O=c1[nH]c2ccccc2n1C1CCN(CCCC(c2ccc(F)cc2)c2ccc(F)cc2)CC1 [Pimozide]
Procedure, shortened: as §1

Tivozanib = compound: COc1cc2nccc(Oc3ccc(NC(=O)Nc4cc(C)on4)c(Cl)c3)c2cc1OC [Tivozanib]
Procedure, shortened: as §1

[1] = compound: Cc1cnc(-c2cnc(NCCNc3ccc(C#N)cn3)nc2-c2ccc(Cl)cc2Cl)[nH]1
Procedure, shortened: as §1

Cytarabine = compound: Nc1ccn([C@@H]2O[C@H](CO)[C@@H](O)[C@@H]2O)c(=O)n1 [Cytarabine]
Procedure, shortened: as §1

JQ1 = compound: Cc1sc2c(c1C)C(c1ccc(Cl)cc1)=N[C@@H](CC(=O)OC(C)(C)C)c1nnc(C)n1-2 [JQ1]
Procedure, shortened: as §1

Docetaxel = compound: CC(=O)O[C@@]12CO[C@@H]1C[C@H](O)[C@@]1(C)C(=O)[C@H](O)C3=C(C)[C@@H](OC(=O)[C@H](O)[C@@H](NC(=O)OC(C)(C)C)c4ccccc4)C[C@@](O)([C@@H](OC(=O)c4ccccc4)[C@H]21)C3(C)C [Docetaxel]
Procedure, shortened: as §1

Cell Line | relative viability (CPI-613; 5 µM) | relative viability (CPI-613; 15.81 µM) | relative viability (CPI-613; 50 µM) | relative viability (CPI-613; 158.11 µM) | relative viability (CPI-613; 500 µM) | relative viability (Pimozide; 0.08 µM) | relative viability (Pimozide; 0.253 µM) | relative viability (Pimozide; 0.8 µM) | relative viability (Pimozide; 2.53 µM) | relative viability (Pimozide; 8 µM) | relative viability (Tivozanib; 0.005 µM) | relative viability (Tivozanib; 0.01581 µM) | relative viability (Tivozanib; 0.05 µM) | relative viability (Tivozanib; 0.1581 µM) | relative viability (Tivozanib; 0.5 µM) | relative viability ([1]; 0.08 µM) | relative viability ([1]; 0.253 µM) | relative viability ([1]; 0.8 µM) | relative viability ([1]; 2.53 µM) | relative viability (Cytarabine; 0.005 µM) | relative viability (Cytarabine; 0.01581 µM) | relative viability (Cytarabine; 0.05 µM) | relative viability (Cytarabine; 0.1581 µM) | relative viability (Cytarabine; 0.5 µM) | relative viability (JQ1; 0.04 µM) | relative viability (JQ1; 0.1265 µM) | relative viability (JQ1; 0.4 µM) | relative viability (JQ1; 1.265 µM) | relative viability (JQ1; 4 µM) | relative viability (Docetaxel; 0.0002 µM) | relative viability (Docetaxel; 0.000632 µM) | relative viability (Docetaxel; 0.002 µM) | relative viability (Docetaxel; 0.006325 µM) | relative viability (Docetaxel; 0.02 µM)
LXF-289 | 0.922 | 0.958 | 0.992 | 0.78 | 0.0678 | 0.963 | 1 | 0.917 | 0.998 | 0.923 | 0.998 | 0.935 | 0.996 | 1.1 | 0.956 | 1.01 | 0.864 | 1.06 | 1.1 | 0.93 | 1 | 0.883 | 0.563 | 0.305 | 0.984 | 0.965 | 0.981 | 0.936 | 0.671 | 1 | 0.731 | 0.473 | 0.171 | 0.128
NCI-H23 | 0.982 | 0.881 | 0.943 | 0.39 | 0.043 | 0.95 | 1.05 | 0.773 | 0.851 | 0.808 | 0.943 | 0.966 | 0.913 | 0.661 | 0.61 | 0.891 | 0.873 | 0.941 | 0.842 | 0.773 | 0.564 | 0.559 | 0.246 | 0.203 | 0.919 | 0.874 | 0.584 | 0.274 | 0.218 | 0.99 | 0.725 | 0.296 | 0.209 | 0.137
NCI-H322M | 0.894 | 0.85 | 0.899 | 0.911 | 0.153 |  | 0.932 | 1.02 | 0.948 | 0.705 | 0.948 | 0.929 | 0.972 | 0.791 | 0.902 | 0.976 | 0.842 | 0.853 | 1.26 | 0.877 | 0.794 | 0.628 | 0.475 | 0.336 | 0.917 | 1.05 | 0.822 | 0.57 | 0.437 | 0.957 | 0.889 | 0.762 | 0.612 | 0.439
NCI-H358 | 0.876 | 0.949 | 0.901 | 0.495 | 0.038 | 0.796 | 1.02 | 0.876 | 0.943 | 0.925 | 0.898 | 0.944 | 1.1 | 0.915 | 1.01 | 0.97 | 0.818 | 0.822 | 0.796 | 0.912 | 0.757 | 0.509 | 0.2 | 0.161 | 0.982 | 0.976 | 0.941 | 0.638 | 0.461 | 0.768 | 0.463 | 0.251 | 0.209 | 0.138
NCI-H441 | 0.954 | 1.01 | 0.924 | 0.4 | 0.0254 | 1.12 | 0.9 | 0.804 | 0.883 | 0.776 | 0.949 | 0.93 | 0.919 | 0.895 | 0.766 | 1.01 | 0.768 | 0.95 | 0.867 | 0.962 | 0.973 | 0.965 | 0.365 | 0.367 | 1.01 | 0.813 | 0.719 | 0.598 | 0.352 | 0.977 | 0.747 | 0.288 | 0.26 | 0.13
NCI-H460 | 0.973 | 0.97 | 1 | 0.66 | 0.515 | 1.01 | 0.95 | 0.964 | 0.913 | 0.922 | 0.985 | 1.06 | 0.989 | 1.03 | 0.965 | 1 | 0.911 | 0.981 | 0.883 | 0.962 | 0.894 | 0.256 | 0.0513 | 0.0345 | 0.97 | 0.617 | 0.593 | 0.353 | 0.197 | 0.949 | 0.806 | 0.288 | 0.0373 | 0.0295
NCI-H520 | 1.05 | 0.952 | 1.04 | 0.77 | 0.139 | 0.993 | 0.978 | 0.903 | 0.96 | 0.972 | 0.906 | 0.922 | 0.884 | 0.684 | 0.859 | 1.04 | 1 | 1.03 | 1.07 | 0.94 | 1.04 | 1.13 | 0.741 | 0.657 | 0.954 | 1.07 | 0.905 | 0.533 | 0.458 | 0.853 | 0.973 | 0.489 | 0.277 | 0.169
NCI-H522 | 0.864 | 0.944 | 1.09 | 0.921 | 0.53 | 0.93 | 0.885 | 0.868 | 0.893 | 0.906 | 0.961 | 1.21 | 0.925 | 0.802 | 0.787 | 1.07 | 1.01 | 1.02 | 0.873 | 0.868 | 0.878 | 0.762 | 0.566 | 0.53 | 0.957 | 0.915 | 0.793 | 0.457 | 0.425 | 0.927 | 0.727 | 0.689 | 0.579 | 0.389
NCI-H596 | 0.956 | 0.902 | 1.04 | 0.781 | 0.0741 | 0.993 | 0.935 | 0.882 | 0.952 | 0.847 | 0.926 | 0.963 | 1.13 |  | 0.99 | 0.995 | 0.972 | 0.754 | 1.07 | 0.956 | 0.841 | 0.798 | 0.689 | 0.551 | 1.06 | 0.923 | 0.747 | 0.412 | 0.286 | 0.89 | 0.89 | 0.632 | 0.518 | 0.273
